# Assay results: patent publication US10610522B2, “Methods for retreating irritable bowel syndrome (IBS)” (Salix Pharmaceuticals, Inc., priority 2014, dated 2020)
# Tests used:
# non-constipation IBS = assay: Combined first and second studies (TARGET 1 and 2): pooled efficacy, sustained response and recurrence; type: in vivo, human; parameters: Responders: abdominal pain reduction of 2 point in median / Responders: abdominal pain reduction of 3 point in median / Responders: abdominal pain reduction of 1 point in weekly median / Responders: abdominal pain reduction of 1 point in weekly mean / Responders: abdominal pain reduction of 2 point in mean: concentration or dose not given beside the values
# Method: A measure of efficacy is based on subjects' answers to the Weekly Subject Global Assessment (SGA) questions over the study duration in relation to their IBS symptoms.
# An evaluation of the enrolled subjects was carried out after the Primary Evaluation Period in the study described in Examples 5-7. […] Subjects with no recurrence are defined as having a stool consistency score of less than 4, abdominal pain reduced by at least 30 percent or both.
# IBS-D = assay: Adverse reactions in three phase 3 placebo-controlled IBS-D studies, rifaximin 550 mg TID; type: in vivo, human
# Source text: In two studies, 624 patients received only one 14-day treatment.
# (These include adverse reactions that may be attributable to the underlying disease.)
# The following includes adverse reactions regardless of causal relationship to drug exposure. Gastrointestinal Disorders: Abdominal distension, abdominal tenderness, constipation, diarrhea, dyspepsia, flatulence, vomiting
# [1] = Combined, at least 2 weeks during PEP
# [2] = Rolling 2-5 Weeks, Rifaximin (N = 624), n (%)
# [3] = Rolling 3-6 Weeks, Rifaximin (N = 624), n (%)
# [4] = Rolling 4-7 Weeks, Rifaximin (N = 624), n (%)
# [5] = Rolling 4 Weeks: 4-7 Weeks, N = 624
# [6] = Rolling 4 Weeks: 5-8 Weeks, N = 624
# [7] = Rolling 4 Weeks: 6-9 Weeks, N = 624
# [8] = Rolling 4 Weeks: 7-10 Weeks, N = 624
# [9] = Rolling 4 Weeks: 8-11 Weeks, N = 624
# [10] = Rolling 4 Weeks: 9-12 Weeks, N = 624
# [11] = Rolling 5-8 Weeks, Rifaximin (N = 624), n (%)
# [12] = Rolling 6-9 Weeks, Rifaximin (N = 624), n (%)
# [13] = Rolling 7-10 Weeks, Rifaximin (N = 624), n (%)
# [14] = Rolling 8-11 Weeks, Rifaximin (N = 624), n (%)
# [15] = Rolling 9-12 Weeks, Rifaximin (N = 624), n (%)
# [16] = 1650 mg/day, N = 952, three phase 3 placebo-controlled studies
smiles,measurement,setting,value
"CO[C@H]1/C=C/O[C@@]2(C)Oc3c(C)c(O)c4c(O)c(c5c(nc6cc(C)ccn65)c4c3C2=O)NC(=O)/C(C)=C\C=C\[C@H](C)[C@H](O)[C@@H](C)[C@@H](O)[C@@H](C)[C@H](OC(C)=O)[C@@H]1C [Rifaximin, (2S,16Z,18E,20S,21S,22R,23R,24R,25S,26S,27S,28E)-5,6,21,23,25 Pentahydroxy-27-methoxy-2,4,11,16,20,22,24,26-octamethyl-2,7-(epoxypentadeca-(1,11,13)trienimino) benzofuro (4,5-e) pyrido(1,2-a) benzimidazole-1,15(2H)-dione,25-acetate]",IBS symptom of bloating: adequate relief at least 2 out of 4 weeks during weeks 3 through 6 (weekly question),non-constipation IBS; Combined,40%
same,Global IBS symptoms: adequate relief at least 2 out of 4 weeks during weeks 3 through 6 (weekly question),"non-constipation IBS; Combined, 550 mg TID 14 d",32% vs 41%
same,Responders: abdominal pain reduction of 1 point in weekly mean,non-constipation IBS; [1],52%
same,Responders: abdominal pain reduction of 1 point in weekly median,non-constipation IBS; [1],63%
same,Responders: abdominal pain reduction of 2 point in mean,non-constipation IBS; [1],25%
same,Responders: abdominal pain reduction of 2 point in median,non-constipation IBS; [1],39%
same,Responders: abdominal pain reduction of 3 point in mean,non-constipation IBS; [1],6% vs 7%
same,Responders: abdominal pain reduction of 3 point in median,non-constipation IBS; [1],21%
same,Responders: daily abdominal pain < 2 for at least 50% of days in a week,non-constipation IBS; [1],39%
same,Responders: overall reduction of mean weekly abdominal pain by >= 25%,non-constipation IBS; [1],57%
same,Responders: overall reduction of mean weekly abdominal pain by >= 50%,non-constipation IBS; [1],35%
same,Responders: overall reduction of mean weekly abdominal pain by >= 75%,non-constipation IBS; [1],14%
same,Responders: overall reduction of median weekly abdominal pain by >= 25%,non-constipation IBS; [1],62%
same,Responders: overall reduction of median weekly abdominal pain by >= 50%,non-constipation IBS; [1],44%
same,Responders: overall reduction of median weekly abdominal pain by >= 75%,non-constipation IBS; [1],21%
same,"Sustained Durable Response (No Recurrence), Abdominal Pain & Stool Consistency: % of subjects",non-constipation IBS; N = 624,(33.2%)
same,"Sustained Durable Response (No Recurrence), Abdominal Pain & Stool Consistency: number of subjects",non-constipation IBS; N = 624,207
same,"Sustained Durable Response (No Recurrence), Abdominal Pain: % of subjects",non-constipation IBS; N = 624,(35.7%)
same,"Sustained Durable Response (No Recurrence), Abdominal Pain: number of subjects",non-constipation IBS; N = 624,223
same,"Sustained Durable Response (No Recurrence), Stool Consistency: % of subjects",non-constipation IBS; N = 624,(68.9%)
same,"Sustained Durable Response (No Recurrence), Stool Consistency: number of subjects",non-constipation IBS; N = 624,430
same,"Abdominal Pain or Stool Consistency, Sustained Durable Response","non-constipation IBS; Rifaximin (N = 624), n (%)",180 (28.8%)
same,"Abdominal Pain or Stool Consistency, No Recurrence",non-constipation IBS; [2],286 (45.8%)
same,"Abdominal Pain or Stool Consistency, Recurrence",non-constipation IBS; [2],12 (1.9%)
same,"Abdominal Pain or Stool Consistency, No Recurrence",non-constipation IBS; [3],274 (43.9%)
same,"Abdominal Pain or Stool Consistency, Recurrence",non-constipation IBS; [3],23 (3.7%)
same,"Abdominal Pain or Stool Consistency, No Recurrence",non-constipation IBS; [4],251 (40.2%)
same,"Abdominal Pain or Stool Consistency, Recurrence",non-constipation IBS; [4],17 (2.7%)
same,"No Recurrence, Abdominal Pain & Stool Consistency: % of subjects",non-constipation IBS; [5],(48.2%)
same,"No Recurrence, Abdominal Pain & Stool Consistency: number of subjects",non-constipation IBS; [5],301
same,"No Recurrence, Abdominal Pain: % of subjects",non-constipation IBS; [5],(51.9%)
same,"No Recurrence, Abdominal Pain: number of subjects",non-constipation IBS; [5],324
same,"No Recurrence, Stool Consistency: % of subjects",non-constipation IBS; [5],(78.8%)
same,"No Recurrence, Stool Consistency: number of subjects",non-constipation IBS; [5],492
same,"Recurrence, Abdominal Pain & Stool Consistency: % of subjects",non-constipation IBS; [5],3.7%
same,"Recurrence, Abdominal Pain & Stool Consistency: number of subjects",non-constipation IBS; [5],23
same,"Recurrence, Abdominal Pain: % of subjects",non-constipation IBS; [5],3.8%
same,"Recurrence, Abdominal Pain: number of subjects",non-constipation IBS; [5],24
same,"Recurrence, Stool Consistency: % of subjects",non-constipation IBS; [5],1.3%
same,"Recurrence, Stool Consistency: number of subjects",non-constipation IBS; [5],8
same,"No Recurrence, Abdominal Pain & Stool Consistency: % of subjects",non-constipation IBS; [6],(44.6%)
same,"No Recurrence, Abdominal Pain & Stool Consistency: number of subjects",non-constipation IBS; [6],278
same,"No Recurrence, Abdominal Pain: % of subjects",non-constipation IBS; [6],(48.1%)
same,"No Recurrence, Abdominal Pain: number of subjects",non-constipation IBS; [6],300
same,"No Recurrence, Stool Consistency: % of subjects",non-constipation IBS; [6],(77.6%)
same,"No Recurrence, Stool Consistency: number of subjects",non-constipation IBS; [6],484
same,"Recurrence, Abdominal Pain & Stool Consistency: % of subjects",non-constipation IBS; [6],3.2%
same,"Recurrence, Abdominal Pain & Stool Consistency: number of subjects",non-constipation IBS; [6],20
same,"Recurrence, Abdominal Pain: % of subjects",non-constipation IBS; [6],3.0%
same,"Recurrence, Abdominal Pain: number of subjects",non-constipation IBS; [6],19
same,"Recurrence, Stool Consistency: % of subjects",non-constipation IBS; [6],2.1%
same,"Recurrence, Stool Consistency: number of subjects",non-constipation IBS; [6],13
same,"No Recurrence, Abdominal Pain & Stool Consistency: % of subjects",non-constipation IBS; [7],(41.3%)
same,"No Recurrence, Abdominal Pain & Stool Consistency: number of subjects",non-constipation IBS; [7],258
same,"No Recurrence, Abdominal Pain: % of subjects",non-constipation IBS; [7],(45.0%)
same,"No Recurrence, Abdominal Pain: number of subjects",non-constipation IBS; [7],281
same,"No Recurrence, Stool Consistency: % of subjects",non-constipation IBS; [7],(75.5%)
same,"No Recurrence, Stool Consistency: number of subjects",non-constipation IBS; [7],471
same,"Recurrence, Abdominal Pain & Stool Consistency: % of subjects",non-constipation IBS; [7],2.2%
same,"Recurrence, Abdominal Pain & Stool Consistency: number of subjects",non-constipation IBS; [7],14
same,"Recurrence, Abdominal Pain: % of subjects",non-constipation IBS; [7],2.4%
same,"Recurrence, Abdominal Pain: number of subjects",non-constipation IBS; [7],15
same,"Recurrence, Stool Consistency: % of subjects",non-constipation IBS; [7],2.6%
same,"Recurrence, Stool Consistency: number of subjects",non-constipation IBS; [7],16
same,"No Recurrence, Abdominal Pain & Stool Consistency: % of subjects",non-constipation IBS; [8],(39.1%)
same,"No Recurrence, Abdominal Pain & Stool Consistency: number of subjects",non-constipation IBS; [8],244
same,"No Recurrence, Abdominal Pain: % of subjects",non-constipation IBS; [8],(42.6%)
same,"No Recurrence, Abdominal Pain: number of subjects",non-constipation IBS; [8],266
same,"No Recurrence, Stool Consistency: % of subjects",non-constipation IBS; [8],(72.9%)
same,"No Recurrence, Stool Consistency: number of subjects",non-constipation IBS; [8],455
same,"Recurrence, Abdominal Pain & Stool Consistency: % of subjects",non-constipation IBS; [8],1.8%
same,"Recurrence, Abdominal Pain & Stool Consistency: number of subjects",non-constipation IBS; [8],11
same,"Recurrence, Abdominal Pain: % of subjects",non-constipation IBS; [8],2.4%
same,"Recurrence, Abdominal Pain: number of subjects",non-constipation IBS; [8],15
same,"Recurrence, Stool Consistency: % of subjects",non-constipation IBS; [8],1.4%
same,"Recurrence, Stool Consistency: number of subjects",non-constipation IBS; [8],9
same,"No Recurrence, Abdominal Pain & Stool Consistency: % of subjects",non-constipation IBS; [9],(37.3%)
same,"No Recurrence, Abdominal Pain & Stool Consistency: number of subjects",non-constipation IBS; [9],233
same,"No Recurrence, Abdominal Pain: % of subjects",non-constipation IBS; [9],(40.2%)
same,"No Recurrence, Abdominal Pain: number of subjects",non-constipation IBS; [9],251
same,"No Recurrence, Stool Consistency: % of subjects",non-constipation IBS; [9],(71.5%)
same,"No Recurrence, Stool Consistency: number of subjects",non-constipation IBS; [9],446
same,"Recurrence, Abdominal Pain & Stool Consistency: % of subjects",non-constipation IBS; [9],2.2%
same,"Recurrence, Abdominal Pain & Stool Consistency: number of subjects",non-constipation IBS; [9],14
same,"Recurrence, Abdominal Pain: % of subjects",non-constipation IBS; [9],2.2%
same,"Recurrence, Abdominal Pain: number of subjects",non-constipation IBS; [9],14
same,"Recurrence, Stool Consistency: % of subjects",non-constipation IBS; [9],0.5%
same,"Recurrence, Stool Consistency: number of subjects",non-constipation IBS; [9],3
same,"No Recurrence, Abdominal Pain & Stool Consistency: % of subjects",non-constipation IBS; [10],(35.1%)
same,"No Recurrence, Abdominal Pain & Stool Consistency: number of subjects",non-constipation IBS; [10],219
same,"No Recurrence, Abdominal Pain: % of subjects",non-constipation IBS; [10],(38.0%)
same,"No Recurrence, Abdominal Pain: number of subjects",non-constipation IBS; [10],237
same,"No Recurrence, Stool Consistency: % of subjects",non-constipation IBS; [10],(71.0%)
same,"No Recurrence, Stool Consistency: number of subjects",non-constipation IBS; [10],443
same,"Recurrence, Abdominal Pain & Stool Consistency: % of subjects",non-constipation IBS; [10],1.9%
same,"Recurrence, Abdominal Pain & Stool Consistency: number of subjects",non-constipation IBS; [10],12
same,"Recurrence, Abdominal Pain: % of subjects",non-constipation IBS; [10],2.2%
same,"Recurrence, Abdominal Pain: number of subjects",non-constipation IBS; [10],14
same,"Recurrence, Stool Consistency: % of subjects",non-constipation IBS; [10],2.1%
same,"Recurrence, Stool Consistency: number of subjects",non-constipation IBS; [10],13
same,"Abdominal Pain or Stool Consistency, No Recurrence",non-constipation IBS; [11],234 (37.5%)
same,"Abdominal Pain or Stool Consistency, Recurrence",non-constipation IBS; [11],16 (2.6%)
same,"Abdominal Pain or Stool Consistency, No Recurrence",non-constipation IBS; [12],218 (34.9%)
same,"Abdominal Pain or Stool Consistency, Recurrence",non-constipation IBS; [12],10 (1.6%)
same,"Abdominal Pain or Stool Consistency, No Recurrence",non-constipation IBS; [13],208 (33.3%)
same,"Abdominal Pain or Stool Consistency, Recurrence",non-constipation IBS; [13],10 (1.6%)
same,"Abdominal Pain or Stool Consistency, No Recurrence",non-constipation IBS; [14],198 (31.7%)
same,"Abdominal Pain or Stool Consistency, Recurrence",non-constipation IBS; [14],8 (1.3%)
same,"Abdominal Pain or Stool Consistency, No Recurrence",non-constipation IBS; [15],190 (30.4%)
same,"Abdominal Pain or Stool Consistency, Recurrence",non-constipation IBS; [15],10 (1.6%)
same,Most common adverse reactions in IBS-D (≥2%),IBS-D; 550 mg TID,nausea and abdominal pain
same,Adverse reaction Abdominal Pain: % of Patients,IBS-D; [16],2%
same,Adverse reaction Abdominal Pain: Number of Patients,IBS-D; [16],18
same,Adverse reaction Nausea: % of Patients,IBS-D; [16],2%
same,Adverse reaction Nausea: Number of Patients,IBS-D; [16],22
